US20250084056A1, “SUBSTITUTED OXOISOINDOLINYL PIPERIDINE-2,6-DIONE COMPOUNDS” (BRISTOL-MYERS SQUIBB COMPANY, priority 2023, published 2025)
pIC50: −log10 of the molar value.

Tests used:
Type in all cases: cell-based
Phospho-Rb (Ser807/811) = experiment: Phospho-Retinoblastoma (pRB) Cellular Assay; conditions: Homo sapiens, OVCAR-3, NIH OVCAR3 cells, 24 hours; for pIC50: concentration giving 50% response; for Emax: maximum response, reference compound at 10 μM = 100%, read-out: pRB Ymax
Outline: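 OVCAR3 cells seeded overnight, then dosed with serial dilutions for 24 h at 37° C. Lysed with kit mix plus phosphatase inhibitor, ≥4 h at room temperature, read on EnVision; 100% response set by reference compound at 10 μM, giving IC50 and Ymax.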

GSPT1 = GSPT1 (Homo sapiens, UniProt P15170+Q96SW2); experiment: GSPT1 Cellular Degradation Assay (DF15-GSPT1-ePL); parameters: expressed in transfected cells; conditions: DF15-GSPT1-ePL cells, 20 hours
Outline: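 Human DF15 cells co-expressing a GSPT1–ePL fusion were treated with compound in RPMI 1640/10% FBS for 20 h at 37 °C. GSPT1 level was read by enzyme-fragment-complementation luminescence after 60 min with detection reagent. The reference degrader at […] defined 75% response; DC50 and Dmax were reported.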

Cyclin E1 = Cyclin E1 (Homo sapiens, UniProt P24864+Q96SW2); experiment: Cyclin E1 Cellular Degradation Assay (MSD); parameters: endogenous in cells; host or cells: OVCAR3; conditions: for DC50 / Dmax: Cyclin E1 cellular degradation; for Dmax: maximum degradation; for Ratio of GSPT1 DC50/Cyclin E1 DC50: selectivity for degradation of Cyclin E1 over GSPT1
Outline: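 OVCAR3 cells treated with compound for 24 h at 37 °C, lysed, and cyclin E1 measured by MSD sandwich immunoassay (rabbit capture, mouse detection anti-CCNE1). Reference degrader at […] defined 110% response; DC50 and Dmax derived from response.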

Sequence of GSPT1 (P15170 whole entry, the tested form may be a part): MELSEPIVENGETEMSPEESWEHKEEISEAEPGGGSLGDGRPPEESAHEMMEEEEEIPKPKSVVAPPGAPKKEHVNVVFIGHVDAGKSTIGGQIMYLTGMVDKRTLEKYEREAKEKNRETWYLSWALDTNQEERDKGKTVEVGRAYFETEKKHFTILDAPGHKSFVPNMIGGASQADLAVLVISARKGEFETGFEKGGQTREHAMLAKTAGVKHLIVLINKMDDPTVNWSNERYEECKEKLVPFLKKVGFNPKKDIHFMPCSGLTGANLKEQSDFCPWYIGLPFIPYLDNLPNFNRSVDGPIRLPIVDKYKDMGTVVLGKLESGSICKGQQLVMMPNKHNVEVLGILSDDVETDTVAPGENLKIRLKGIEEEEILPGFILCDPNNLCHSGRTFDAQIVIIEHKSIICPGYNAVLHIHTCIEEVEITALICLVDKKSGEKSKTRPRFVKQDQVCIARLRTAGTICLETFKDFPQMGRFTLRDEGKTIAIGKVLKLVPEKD
Sequence of GSPT1 (Q96SW2 whole entry, the tested form may be a part): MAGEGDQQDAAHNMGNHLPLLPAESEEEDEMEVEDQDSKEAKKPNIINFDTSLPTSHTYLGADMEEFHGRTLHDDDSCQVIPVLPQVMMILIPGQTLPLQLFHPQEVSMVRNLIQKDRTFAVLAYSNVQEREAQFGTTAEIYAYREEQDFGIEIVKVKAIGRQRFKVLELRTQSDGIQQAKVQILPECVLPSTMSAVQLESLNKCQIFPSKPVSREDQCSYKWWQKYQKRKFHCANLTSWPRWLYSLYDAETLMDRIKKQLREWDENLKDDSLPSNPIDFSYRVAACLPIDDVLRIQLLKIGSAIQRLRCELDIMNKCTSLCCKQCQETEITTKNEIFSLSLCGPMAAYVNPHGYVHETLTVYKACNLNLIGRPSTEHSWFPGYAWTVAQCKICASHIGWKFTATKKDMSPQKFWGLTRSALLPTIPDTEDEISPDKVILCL
Sequence of GSPT1 (Q16531 whole entry partner, the tested form may be a part): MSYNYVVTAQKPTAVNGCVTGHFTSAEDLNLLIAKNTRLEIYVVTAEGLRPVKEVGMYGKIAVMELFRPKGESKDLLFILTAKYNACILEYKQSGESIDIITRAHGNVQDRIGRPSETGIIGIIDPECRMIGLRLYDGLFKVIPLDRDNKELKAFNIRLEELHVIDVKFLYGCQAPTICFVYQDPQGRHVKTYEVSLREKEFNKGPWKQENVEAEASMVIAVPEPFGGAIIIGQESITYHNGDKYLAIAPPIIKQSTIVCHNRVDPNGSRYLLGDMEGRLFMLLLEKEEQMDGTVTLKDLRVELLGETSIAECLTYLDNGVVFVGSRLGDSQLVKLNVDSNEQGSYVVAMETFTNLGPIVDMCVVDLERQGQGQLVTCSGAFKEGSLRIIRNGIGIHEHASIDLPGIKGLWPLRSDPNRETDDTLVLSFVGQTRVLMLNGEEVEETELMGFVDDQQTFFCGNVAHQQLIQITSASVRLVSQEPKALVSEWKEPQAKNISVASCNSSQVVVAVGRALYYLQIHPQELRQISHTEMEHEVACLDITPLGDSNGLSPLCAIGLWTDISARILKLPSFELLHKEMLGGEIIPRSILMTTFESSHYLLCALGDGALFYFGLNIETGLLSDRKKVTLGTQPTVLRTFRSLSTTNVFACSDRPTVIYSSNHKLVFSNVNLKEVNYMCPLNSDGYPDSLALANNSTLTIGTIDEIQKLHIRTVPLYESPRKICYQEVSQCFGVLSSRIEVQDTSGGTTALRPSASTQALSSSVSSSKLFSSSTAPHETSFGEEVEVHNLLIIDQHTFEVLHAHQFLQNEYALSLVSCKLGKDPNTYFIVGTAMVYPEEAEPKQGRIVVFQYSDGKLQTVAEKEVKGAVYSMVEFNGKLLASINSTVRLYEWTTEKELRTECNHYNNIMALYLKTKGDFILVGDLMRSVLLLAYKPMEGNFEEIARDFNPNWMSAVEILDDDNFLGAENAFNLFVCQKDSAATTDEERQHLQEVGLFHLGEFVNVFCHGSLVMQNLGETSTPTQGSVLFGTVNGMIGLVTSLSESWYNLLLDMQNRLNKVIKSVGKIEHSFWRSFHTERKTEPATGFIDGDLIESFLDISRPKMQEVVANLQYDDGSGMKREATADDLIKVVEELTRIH
Sequence of Cyclin E1 (P24864 whole entry): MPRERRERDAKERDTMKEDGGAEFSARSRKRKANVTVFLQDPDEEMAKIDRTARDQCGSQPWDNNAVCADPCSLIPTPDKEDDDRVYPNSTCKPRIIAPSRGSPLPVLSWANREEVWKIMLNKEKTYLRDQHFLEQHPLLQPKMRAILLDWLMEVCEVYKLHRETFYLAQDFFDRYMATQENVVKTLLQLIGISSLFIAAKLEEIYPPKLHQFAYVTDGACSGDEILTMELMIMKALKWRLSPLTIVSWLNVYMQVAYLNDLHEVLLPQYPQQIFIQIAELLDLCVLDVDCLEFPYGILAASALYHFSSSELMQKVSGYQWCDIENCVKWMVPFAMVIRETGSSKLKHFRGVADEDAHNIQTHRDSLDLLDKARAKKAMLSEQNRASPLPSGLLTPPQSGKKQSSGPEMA
Sequence of Cyclin E1 (Q96SW2 whole entry): as the sequence (Q96SW2 whole entry, the tested form may be a part) above
Sequence of Cyclin E1 (Q16531 whole entry partner): as the sequence (Q16531 whole entry partner, the tested form may be a part) above

SMILES | pIC50 (Phospho-Rb (Ser807/811)) | DC50 (GSPT1) [µM] | Dmax (GSPT1) [%] | DC50 (Cyclin E1) [µM] | Dmax (Cyclin E1) [%] | Ratio of GSPT1 DC50/Cyclin E1 DC50 (Cyclin E1) | Emax (Phospho-Rb (Ser807/811)) [%]
COc1c(COC(=O)Nc2ccc(Oc3ccc(F)c(F)c3)cc2)ccc2c1C(=O)N([C@@H]1CCC(=O)NC1=O)C2 (single isomer, unassigned) [Example 36] | 6.47 | > 14 | 28 | 0.257 | 108 | >54 | 98
O=C1CCC(N2Cc3ccc(COC(=O)Nc4ccc(Oc5ccc(F)c(F)c5)cc4)c(Oc4cccnc4)c3C2=O)C(=O)N1 (centres unmarked) [Example 172, [2-(2,6-dioxopiperidin-3-yl)-3-oxo-4-(pyridin-3-yloxy)-2,3-dihydro-1H-isoindol-5-yl]methyl N-[4-(3,4-difluorophenoxy)phenyl]carbamate] | 6.93 | > 14 | 6 | 0.079 | 100 | >177 | 120
O=C1CCC(N2Cc3ccc(COC(=O)Nc4ccc(Oc5ccc(F)cc5Cl)cc4)c(OC4CCC4)c3C2=O)C(=O)N1 (centres unmarked) [Example 128, [4-cyclobutoxy-2-(2,6-dioxopiperidin-3-yl)-3-oxo-2,3-dihydro-1H-isoindol-5-yl]methyl N-[4-(2-chloro-4-fluorophenoxy)phenyl]carbamate] | 6.87 | > 14 | 10 | 0.101 | 106 | >139 | 124
COc1cc(Oc2ccc(F)cc2F)ccc1NC(=O)OCc1ccc2c(c1OC)C(=O)N(C1CCC(=O)NC1=O)C2 (centres unmarked) [Example 49, [2-(2,6-dioxopiperidin-3-yl)-4-methoxy-3-oxo-2,3-dihydro-1H-isoindol-5-yl]methyl N-[4-(2,4-difluorophenoxy)-2-methoxyphenyl]carbamate] | 6.77 | > 14 | 24 | 0.077 | 106 | >181 | 116

Stronger by pIC50 (Phospho-Rb (Ser807/811)), values ahead:

pIC50 (Phospho-Rb (Ser807/811)) | DC50 (GSPT1) [µM] | Dmax (GSPT1) [%] | DC50 (Cyclin E1) [µM] | Dmax (Cyclin E1) [%] | Ratio of GSPT1 DC50/Cyclin E1 DC50 (Cyclin E1) | SMILES | Emax (Phospho-Rb (Ser807/811)) [%]
7.00 | > 14 | 45 | 0.11 | 103 | >127 | COc1c(COC(=O)Nc2ccc(Oc3ccc(F)cc3)cc2F)ccc2c1C(=O)N(C1CCC(=O)NC1=O)C2 (centres unmarked) [Example 28, [2-(2,6-dioxopiperidin-3-yl)-4-methoxy-3-oxo-2,3-dihydro-1H-isoindol-5-yl]methyl N-[2-fluoro-4-(4-fluorophenoxy)phenyl]carbamate] | 106
7.62 | > 14 | 8 | 0.027 | 107 | >521 | CC(C)(O)COc1c(COC(=O)Nc2ccc(Oc3ccc(F)cc3)cc2F)ccc2c1C(=O)N(C1CCC(=O)NC1=O)C2 (centres unmarked) [Example 162, [2-(2,6-dioxopiperidin-3-yl)-4-(2-hydroxy-2-methylpropoxy)-3-oxo-2,3-dihydro-1H-isoindol-5-yl]methyl N-[2-fluoro-4-(4-fluorophenoxy)phenyl]carbamate] | 133
7.11 | > 14 | 19 | 0.194 | 107 | >72 | COc1cc(Oc2cc(F)c(F)cc2F)ccc1NC(=O)OCc1ccc2c(c1OC)C(=O)N(C1CCC(=O)NC1=O)C2 (centres unmarked) [Example 34, [2-(2,6-dioxopiperidin-3-yl)-4-methoxy-3-oxo-2,3-dihydro-1H-isoindol-5-yl]methyl N-[2-methoxy-4-(2,4,5-trifluorophenoxy)phenyl]carbamate] | 122
7.33 | > 14 | 21 | 0.015 | 101 | >937 | CC(C)(O)COc1c(COC(=O)Nc2ccc(Oc3ccc(F)c(F)c3)cc2)ccc2c1C(=O)N(C1CCC(=O)NC1=O)C2 (centres unmarked) [Example 159, [2-(2,6-dioxopiperidin-3-yl)-4-(2-hydroxy-2-methylpropoxy)-3-oxo-2,3-dihydro-1H-isoindol-5-yl]methyl N-[4-(3,4-difluorophenoxy)phenyl]carbamate] | 145
